# How the values were obtained:
# bluegrass = assay: Test D preemergence; format: in vivo, Poa annua; details: for Plant response rating (scale 0 to 100), Bluegrass: 16 g ai/ha, taken as preemergence; for Plant response rating, Bluegrass: Preemergence, scale 0 to 100
# How it was run: (§1)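 Visual 0–100 control ratings at 14–21 days in a controlled growth environment. Application preemergence onto silt loam or postemergence onto 2–18 cm seedlings, using a non-phytotoxic solvent formulation with surfactant.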
# ryegrass, Italian [1] = assay: Test D preemergence; format: in vivo, Lolium multiflorum; details: for Plant response rating (scale 0 to 100), Ryegrass, Italian: 16 g ai/ha, taken as preemergence; for Plant response rating, Ryegrass, Italian: Preemergence, scale 0 to 100
# Description: (§2) Seeds of plant species selected from bluegrass (annual bluegrass, Poa annua), blackgrass (Alopecurus myosuroides), canarygrass (littleseed canarygrass, Phalaris minor), chickweed (common chickweed, Stellaria media), galium (catchweed bedstraw, Galium aparine), bromegrass, downy (downy bromegrass, Bromus tectorum), field poppy (Papaver rhoeas), field violet (Viola arvensis), foxtail, green (green foxtail, Setaria viridis), deadnettle (henbit deadnettle, Lamium amplexicaule), ryegrass, Italian (Italian ryegrass, Lolium multiflorum), kochia (Kochia scoparia), lambsquarters (Chenopodium album), oilseed rape (Brassica napus), pigweed (redroot pigweed, Amaranthus retroflexus), chamomile (scentless chamomile, Matricaria inodora), speedwell (bird's-eye speedwell, Veronica persica), barley, spring (spring barley, Hordeum vulgare), wheat, spring (spring wheat, Triticum aestivum), buckwheat, wild (wild buckwheat, Polygonum convolvulus), mustard, wild (wild mustard, Sinapis arvensis), oat, wild (wild oat, Avena fatua), radish, wild (wild radish, Raphanus raphanistrum), windgrass (Apera spica-venti), Russian thistle (Salsola kali), barley, winter (winter barley, Hordeum vulgare), and wheat, winter (winter wheat, Triticum aestivum) were planted into a silt loam soil and treated preemergence with test chemicals formulated in a non-phytotoxic solvent mixture which included a surfactant.
# (§3) At the same time, these species were planted in pots containing Redi-Earth® planting medium (Scotts Company, 14111 Scottslawn Road, Marysville, Ohio 43041) comprising spaghnum peat moss, vermiculite, wetting agent and starter nutrients and treated with postemergence applications of the test chemicals formulated in the same manner. Plants ranged in height from 2 to 18 cm (1- to 4-leaf stage). Treated plants and controls were maintained in a controlled growth environment for 14 to 21 days after which time all species were compared to controls and visually evaluated. Plant response ratings, summarized in Table D, are based on a scale of 0 to 100 where 0 is no effect and 100 is complete control. A dash (-) response means no test result.
# pigweed = assay: Test D preemergence; format: in vivo, Amaranthus retroflexus; details: for Plant response rating (scale 0 to 100), Pigweed: 16 g ai/ha, taken as preemergence; for Plant response rating, Pigweed: Preemergence, scale 0 to 100
# Description: as §2, §3
# radish, wild = assay: Test D preemergence; format: in vivo, Raphanus raphanistrum; details: for Plant response rating, Radish, Wild: Preemergence, scale 0 to 100
# Description: as §2, §3
# chickweed = assay: Test D postemergence; format: in vivo, Stellaria media; details: scale 0 to 100; for Plant response rating, Chickweed: 16 g ai/ha
# Description: as §2, §3
# deadnettle = assay: Test D postemergence; format: in vivo, Lamium amplexicaule; details: scale 0 to 100; for Plant response rating, Deadnettle: 16 g ai/ha
# How it was run: as §1
# ryegrass, Italian [2] = assay: Test D postemergence; format: in vivo, Lolium multiflorum; details: scale 0 to 100; for Plant response rating, Ryegrass, Italian: 16 g ai/ha
# Description: as §2, §3
# wheat, spring = assay: Test D postemergence; format: in vivo, Triticum aestivum; details: scale 0 to 100; for Plant response rating, Wheat, Spring: 16 g ai/ha
# How it was run: as §1
# wheat, winter = assay: Test D postemergence; format: in vivo, Triticum aestivum; details: scale 0 to 100; for Plant response rating, Wheat, Winter: 16 g ai/ha
# How it was run: as §1
smiles,measurement,setting,value
CCc1cc(C(=O)NC2CC2)nn1Cc1ccnc(C(F)(F)F)c1 [Compound 76],"Plant response rating (scale 0 to 100), Bluegrass",bluegrass,0
same,"Plant response rating, Bluegrass",bluegrass; 31 g ai/ha,0
same,"Plant response rating, Bluegrass",bluegrass; 62 g ai/ha,5
same,"Plant response rating, Bluegrass",bluegrass; 125 g ai/ha,55
same,"Plant response rating, Bluegrass",bluegrass; 250 g ai/ha,100
same,"Plant response rating (scale 0 to 100), Ryegrass, Italian","ryegrass, Italian [1]",0
same,"Plant response rating, Ryegrass, Italian","ryegrass, Italian [1]; 31 g ai/ha",0
same,"Plant response rating, Ryegrass, Italian","ryegrass, Italian [1]; 62 g ai/ha",15
same,"Plant response rating, Ryegrass, Italian","ryegrass, Italian [1]; 125 g ai/ha",65
same,"Plant response rating, Ryegrass, Italian","ryegrass, Italian [1]; 250 g ai/ha",95
same,"Plant response rating (scale 0 to 100), Pigweed",pigweed,10
same,"Plant response rating, Pigweed",pigweed; 31 g ai/ha,60
same,"Plant response rating, Pigweed",pigweed; 62 g ai/ha,80
same,"Plant response rating, Pigweed",pigweed; 125 g ai/ha,100
same,"Plant response rating, Pigweed",pigweed; 250 g ai/ha,100
same,"Plant response rating, Radish, Wild","radish, wild; 31 g ai/ha",75
same,"Plant response rating, Radish, Wild","radish, wild; 62 g ai/ha",100
same,"Plant response rating, Radish, Wild","radish, wild; 125 g ai/ha",100
same,"Plant response rating, Radish, Wild","radish, wild; 250 g ai/ha",100
same,"Plant response rating, Chickweed",chickweed; Postemergence,35
same,Chickweed plant response rating,"chickweed; Postemergence, 31 g ai/ha",50
same,Chickweed plant response rating,"chickweed; Postemergence, 125 g ai/ha",60
same,Chickweed plant response rating,"chickweed; Postemergence, 250 g ai/ha",70
same,Chickweed plant response rating,"chickweed; postemergence, 62 g ai/ha",55
same,"Plant response rating, Deadnettle",deadnettle; Postemergence,15
same,Deadnettle plant response rating,"deadnettle; Postemergence, 31 g ai/ha",25
same,Deadnettle plant response rating,"deadnettle; Postemergence, 125 g ai/ha",50
same,Deadnettle plant response rating,"deadnettle; Postemergence, 250 g ai/ha",70
same,Deadnettle plant response rating,"deadnettle; postemergence, 62 g ai/ha",40
same,"Plant response rating, Ryegrass, Italian","ryegrass, Italian [2]; Postemergence",0
same,"Ryegrass, Italian plant response rating","ryegrass, Italian [2]; Postemergence, 31 g ai/ha",0
same,"Ryegrass, Italian plant response rating","ryegrass, Italian [2]; Postemergence, 125 g ai/ha",5
same,"Ryegrass, Italian plant response rating","ryegrass, Italian [2]; Postemergence, 250 g ai/ha",10
same,"Ryegrass, Italian plant response rating","ryegrass, Italian [2]; postemergence, 62 g ai/ha",5
same,"Plant response rating, Wheat, Spring","wheat, spring; Postemergence",0
same,"Wheat, Spring plant response rating","wheat, spring; Postemergence, 31 g ai/ha",5
same,"Wheat, Spring plant response rating","wheat, spring; Postemergence, 125 g ai/ha",5
same,"Wheat, Spring plant response rating","wheat, spring; Postemergence, 250 g ai/ha",10
same,"Wheat, Spring plant response rating","wheat, spring; postemergence, 62 g ai/ha",5
same,"Plant response rating, Wheat, Winter","wheat, winter; Postemergence",0
same,"Wheat, Winter plant response rating","wheat, winter; Postemergence, 31 g ai/ha",0
same,"Wheat, Winter plant response rating","wheat, winter; Postemergence, 125 g ai/ha",15
same,"Wheat, Winter plant response rating","wheat, winter; Postemergence, 250 g ai/ha",20
same,"Wheat, Winter plant response rating","wheat, winter; postemergence, 62 g ai/ha",10
O=C(NC1CC1)c1cc(CCF)n(Cc2ccnc(C(F)(F)F)c2)n1 [Compound 176],"Plant response rating (scale 0 to 100), Bluegrass",bluegrass,0
same,"Plant response rating, Bluegrass",bluegrass; 31 g ai/ha,0
same,"Plant response rating, Bluegrass",bluegrass; 62 g ai/ha,10
same,"Plant response rating, Bluegrass",bluegrass; 125 g ai/ha,20
same,"Plant response rating (scale 0 to 100), Ryegrass, Italian","ryegrass, Italian [1]",0
same,"Plant response rating, Ryegrass, Italian","ryegrass, Italian [1]; 62 g ai/ha",25
same,"Plant response rating, Ryegrass, Italian","ryegrass, Italian [1]; 125 g ai/ha",30
same,"Plant response rating (scale 0 to 100), Pigweed",pigweed,10
same,"Plant response rating, Pigweed",pigweed; 62 g ai/ha,40
same,"Plant response rating, Pigweed",pigweed; 125 g ai/ha,100
same,"Plant response rating (scale 0 to 100), Radish, Wild","radish, wild; 16 g ai/ha, taken as preemergence",15
same,"Plant response rating, Radish, Wild","radish, wild; 62 g ai/ha",75
same,"Plant response rating, Radish, Wild","radish, wild; 125 g ai/ha",100
same,"Plant response rating, Chickweed",chickweed; Postemergence,20
same,Chickweed plant response rating,"chickweed; Postemergence, 31 g ai/ha",35
same,Chickweed plant response rating,"chickweed; Postemergence, 125 g ai/ha",65
same,Chickweed plant response rating,"chickweed; postemergence, 62 g ai/ha",35
same,"Plant response rating, Deadnettle",deadnettle; Postemergence,10
same,Deadnettle plant response rating,"deadnettle; Postemergence, 31 g ai/ha",35
same,Deadnettle plant response rating,"deadnettle; Postemergence, 125 g ai/ha",45
same,Deadnettle plant response rating,"deadnettle; postemergence, 62 g ai/ha",35
same,"Plant response rating, Ryegrass, Italian","ryegrass, Italian [2]; Postemergence",5
same,"Ryegrass, Italian plant response rating","ryegrass, Italian [2]; Postemergence, 31 g ai/ha",5
same,"Ryegrass, Italian plant response rating","ryegrass, Italian [2]; Postemergence, 125 g ai/ha",10
same,"Ryegrass, Italian plant response rating","ryegrass, Italian [2]; postemergence, 62 g ai/ha",5
same,"Plant response rating, Wheat, Spring","wheat, spring; Postemergence",0
same,"Wheat, Spring plant response rating","wheat, spring; Postemergence, 31 g ai/ha",0
same,"Wheat, Spring plant response rating","wheat, spring; Postemergence, 125 g ai/ha",0
same,"Wheat, Spring plant response rating","wheat, spring; postemergence, 62 g ai/ha",0
same,"Plant response rating, Wheat, Winter","wheat, winter; Postemergence",5
same,"Wheat, Winter plant response rating","wheat, winter; Postemergence, 31 g ai/ha",5
same,"Wheat, Winter plant response rating","wheat, winter; Postemergence, 125 g ai/ha",15
same,"Wheat, Winter plant response rating","wheat, winter; postemergence, 62 g ai/ha",5
